Data published in patent US20060223819A1, “Quinoline Derivatives as NK-3 Antagonists” (GlaxoSmithKline S.P.A. & Laboratoire, priority 2000, published 2006).

SMILES | melting point [°C]
COc1cc2nc(-c3ccccc3)c(CN3CCNCC3)c(C(=O)N[C@@H](C)C3CCCCC3)c2cc1OC [Example 10, 6,7-Dimethoxy-2-phenyl-3-piperazin-1-ylmethyl-quinoline-4-carboxylic acid ((S)-1-cyclohexyl-ethyl)-amide] | 130 to 132
CC(C)[C@H](NC(=O)c1c(CN2CCN(/C(=C/[N+](=O)[O-])N3CCCC3)CC2)c(-c2ccccc2)nc2ccccc12)c1ccccc1 [Example 13, 3-[4-(2-Nitro-1-pyrrolidin-1-yl-vinyl)-piperazin-1-ylmethyl]-2-phenyl-quinoline-4-carboxylic acid ((S)-2-methyl-1-phenyl-propyl)-amide] | 170 to 175
C[C@H](NC(=O)c1c(CN2CCNCC2)c(-c2ccccc2)nc2cc3c(cc12)OCCO3)C1CCCCC1 [Example 9, 7-Phenyl-8-piperazin-1-ylmethyl-2,3-dihydro-[1,4]dioxino[2,3-g]quinoline-9-carboxylic acid ((S)-1-cyclohexyl-ethyl)-amide] | 135 to 137
COc1ccc([C@H](C)NC(=O)c2c(CN3CCNCC3)c(-c3ccccc3)nc3ccccc23)cc1 [Example 2, 2-Phenyl-3-piperazin-1-ylmethyl-quinoline-4-carboxylic acid[(S)-1-(4-methoxy-phenyl)-ethyl]-amide] | 109 to 111
C[C@H](NC(=O)c1c(CN2CCNC(=O)C2)c(-c2ccccc2)nc2c(F)cccc12)C1CCCCC1 [Example 39, 8-Fluoro-3-(3-oxo-piperazin-1-ylmethyl)-2-phenylquinoline-4-carboxylic acid ((S)-1-cyclohexyl-ethyl)-amide] | 165
CC(C)[C@H](NC(=O)c1c(CN2CCN(CC(C(=O)O)c3ccccc3)CC2)c(-c2ccccc2)nc2ccccc12)c1ccccc1 (stereo partly drawn) [Example 16, 3-{4-[4-((S)-2-Methyl-1-phenyl-propylcarbamoyl)-2-phenyl-quinolin-3-ylmethyl]-piperazin-1-yl}-2-phenyl-propionic acid] | 156 to 158
C[C@H](NC(=O)c1c(CN2CCNCC2)c(-c2ccccc2)nc2ccccc12)c1cccc(O)c1 [Example 4, 2-Phenyl-3-piperazin-1-ylmethyl-quinoline-4-carboxylic acid [(S)-1-(3-hydroxy-phenyl)-ethyl]-amide] | 240 to 244
C[C@H](NC(=O)c1c(CN2CCN(/C(=C/[N+](=O)[O-])N3CCCC3)CC2)c(-c2ccccc2)nc2ccccc12)c1ccccc1 [Example 12, 3-[4-(2-Nitro-1-pyrrolidin-1-yl-vinyl)-piperazin-1-ylmethyl]-2-phenyl-quinoline-4-carboxylic acid ((S)-1-phenyl-ethyl)-amide] | 164 to 165
C[C@H](NC(=O)c1c(CN2CCNCC2)c(-c2ccccc2)nc2ccc(F)cc12)C1CCCCC1 [Example 24, 6-Fluoro-2-phenyl-3-piperazin-1-ylmethylquinoline-4-carboxylic acid ((S)-1-cyclohexylethyl)-amide] | 154 to 158
C[C@H](NC(=O)c1c(CN2CCNC(=O)C2)c(-c2ccc(C(F)(F)F)cc2)nc2ccccc12)C1CCCCC1 [Example 45, 3-(3-Oxopiperazin-1-ylmethyl)-2-(4-trifluoromethylphenyl)quinoline-4-carboxylic acid ((S)-1-cyclohexylethyl)-amide] | 214 to 217
C[C@H](NC(=O)c1c(CN2CCNC(=O)C2)c(-c2ccccc2)nc2cc3c(cc12)OCCO3)C1CCCCC1 [Example 38, 8-(3-Oxo-piperazin-1-ylmethyl)-7-phenyl-2,3-dihydro-[1,4]dioxino[2,3-g]quinoline-9-carboxylic acid ((S)-1-cyclohexyl-ethyl)-amide] | 144 to 145
CCOC(=O)C1CCCN(/C(=C\[N+](=O)[O-])N2CCN(Cc3c(-c4ccccc4)nc4ccccc4c3C(=O)N[C@@H](C)c3ccccc3)CC2)C1 (stereo partly drawn) [Example 15, 1-(2-Nitro-1-{4-[2-phenyl-4-((S)-1-phenyl-ethylcarbamoyl)-quinolin-3-ylmethyl]-piperazin-1-yl}-vinyl)-piperidine-3-carboxylic acid ethyl ester] | 120 to 121
COc1cccc([C@H](C)NC(=O)c2c(CN3CCNCC3)c(-c3ccccc3)nc3ccccc23)c1 [Example 3, 2-Phenyl-3-piperazin-1-ylmethyl-quinoline-4-carboxylic acid[(S)-1-(3-methoxy-phenyl)-ethyl]-amide] | 147 to 153

Next, values leading:

melting point [°C] | SMILES
251 | C[C@H](NC(=O)c1c(CN2CC(=O)NCC2=O)c(-c2ccccc2)nc2ccccc12)C1CCCCC1 [Example 31, 3-(2,5-Dioxo-piperazin-1-ylmethyl)-2-phenyl-quinoline-4-carboxylic acid ((S)1-cyclohexylethyl)-amide]
118 to 120 | C[C@@H](NC(=O)c1c(CN2CCNCC2)c(-c2ccccc2)nc2ccccc12)C1CCCCC1 [Example 5, 2-Phenyl-3-piperazin-1-ylmethyl-quinoline-4-carboxylic acid((R)-1-cyclohexyl-ethyl)-amide]
136 | C[C@H](NC(=O)c1c(CN2CCN(CC(Cc3ccccc3)C(=O)O)CC2)c(-c2ccccc2)nc2ccccc12)C1CCCCC1 (mixture of isomers) [Example 17, 2-Benzyl-3-{4-[4-((S)-1-cyclohexyl-ethylcarbamoyl)-2-phenyl-quinolin-3-ylmethyl]-piperazin-1-yl}-propionic acid]
230 | C[C@H](NC(=O)c1c(CN2CCNC(=O)C2)c(-c2ccccc2)nc2ccc(F)cc12)C1CCCCC1 [Example 32, 6-Fluoro-3-(3-oxo-piperazin-1-ylmethyl)-2-phenyl-quinoline-4-carboxylic acid ((S)-1-cyclohexyl-ethyl)-amide]
192 to 195 | C[C@H](NC(=O)c1c(CN2CCN(CCC(=O)O)CC2)c(-c2ccccc2)nc2ccccc12)C1CCCCC1 [Example 18, 3-{4-[4-((S)-1-Cyclohexyl-ethylcarbamoyl)-2-phenyl-quinolin-3-ylmethyl]-piperazin-1-yl}-propionic acid]
181 | C[C@H](NC(=O)c1c(CN2CCN(Cc3ccccc3)C(=O)C2)c(-c2ccccc2)nc2ccccc12)C1CCCCC1 [Example 33, 3-(4-Benzyl-3-oxopiperazin-1-ylmethyl)-2-phenylquinoline-4-carboxylic acid ((S)-1-cyclohexylethyl)-amide]
120 to 121 | C[C@H](NC(=O)c1c(CN2CCN(CCS(C)(=O)=O)CC2)c(-c2ccccc2)nc2ccccc12)C1CCCCC1 [Example 21, 3-[4-(2-Methanesulfonyl-ethyl)-piperazin-1-ylmethyl]-2-phenyl-quinoline-4-carboxylic acid ((S)-1-cyclohexyl-ethyl)-amide]
160 | C[C@H](NC(=O)c1c(CN2CCN(CCN3CCCCC3)C(=O)C2)c(-c2ccccc2)nc2ccccc12)C1CCCCC1 [Example 43, 3-[3-Oxo-4-(2-piperidin-1-ylethyl)piperazin-1-ylmethyl]-2-phenylquinoline-4-carboxylic acid ((S)-1-cyclohexylethyl)amide]
167 to 169 | C[C@H](NC(=O)c1c(CN2CCNC(=O)C2)c(-c2ccccc2F)nc2ccccc12)C1CCCCC1 [Example 46, 2-(2-Fluorophenyl)-3-(3-oxopiperazin-1-ylmethyl)-quinoline-4-carboxylic acid ((S)-1-cyclohexyl-ethyl)-amide]
124 | C[C@H](NC(=O)c1c(CN2CC(=O)NC(=O)C2)c(-c2ccccc2)nc2ccccc12)C1CCCCC1 [Example 29, 3-(3,5-Dioxopiperazin-1-ylmethyl)-2-phenylquinoline-4-carboxylic acid ((S)-1-cyclohexylethyl)-amide]
